Measured values taken from ChEMBL document CHEMBL4622849, “Discovery of ethyl ketone-based HDACs 1, 2, and 3 selective inhibitors for HIV latency reactivation” (Bioorg Med Chem Lett, 2020).

Columns and labels:
[1] = tested on: Human immunodeficiency virus; assay: microbe, parasite or virus in culture; type: functional, organism-based; conditions: Human immunodeficiency virus 1, 2C4
Description: Reactivation of HIV latency infected in human 2C4 cells in presence of 0.1 % NHS by luciferase reporter gene assay

[2] = tested on: Human immunodeficiency virus; assay: microbe, parasite or virus in culture; type: functional, organism-based; conditions: Human immunodeficiency virus 1, 2C4; remark: listed apart in the source
[3] = target: Histone deacetylase 2 (Homo sapiens, UniProt Q92769)
Histone deacetylase 2, sequence (Q92769 whole entry): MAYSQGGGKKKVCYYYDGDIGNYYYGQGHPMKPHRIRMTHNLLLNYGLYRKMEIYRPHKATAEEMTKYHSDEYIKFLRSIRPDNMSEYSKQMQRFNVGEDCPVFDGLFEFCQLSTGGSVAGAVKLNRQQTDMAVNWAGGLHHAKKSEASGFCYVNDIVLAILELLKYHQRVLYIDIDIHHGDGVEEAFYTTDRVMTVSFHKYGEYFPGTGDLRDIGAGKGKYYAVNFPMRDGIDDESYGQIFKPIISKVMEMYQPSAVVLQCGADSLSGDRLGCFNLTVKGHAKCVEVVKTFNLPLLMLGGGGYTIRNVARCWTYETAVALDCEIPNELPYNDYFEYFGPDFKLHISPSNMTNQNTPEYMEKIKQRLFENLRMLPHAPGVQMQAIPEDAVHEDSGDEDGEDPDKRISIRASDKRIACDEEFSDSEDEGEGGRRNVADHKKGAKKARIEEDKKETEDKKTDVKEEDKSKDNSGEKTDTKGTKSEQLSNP
Description: Inhibition of HDAC2 (unknown origin)

[4] = target: T1, Protein deacetylase HDAC6 (Homo sapiens, UniProt Q9UBN7); type: ADME
T1 sequence (Q9UBN7 whole entry): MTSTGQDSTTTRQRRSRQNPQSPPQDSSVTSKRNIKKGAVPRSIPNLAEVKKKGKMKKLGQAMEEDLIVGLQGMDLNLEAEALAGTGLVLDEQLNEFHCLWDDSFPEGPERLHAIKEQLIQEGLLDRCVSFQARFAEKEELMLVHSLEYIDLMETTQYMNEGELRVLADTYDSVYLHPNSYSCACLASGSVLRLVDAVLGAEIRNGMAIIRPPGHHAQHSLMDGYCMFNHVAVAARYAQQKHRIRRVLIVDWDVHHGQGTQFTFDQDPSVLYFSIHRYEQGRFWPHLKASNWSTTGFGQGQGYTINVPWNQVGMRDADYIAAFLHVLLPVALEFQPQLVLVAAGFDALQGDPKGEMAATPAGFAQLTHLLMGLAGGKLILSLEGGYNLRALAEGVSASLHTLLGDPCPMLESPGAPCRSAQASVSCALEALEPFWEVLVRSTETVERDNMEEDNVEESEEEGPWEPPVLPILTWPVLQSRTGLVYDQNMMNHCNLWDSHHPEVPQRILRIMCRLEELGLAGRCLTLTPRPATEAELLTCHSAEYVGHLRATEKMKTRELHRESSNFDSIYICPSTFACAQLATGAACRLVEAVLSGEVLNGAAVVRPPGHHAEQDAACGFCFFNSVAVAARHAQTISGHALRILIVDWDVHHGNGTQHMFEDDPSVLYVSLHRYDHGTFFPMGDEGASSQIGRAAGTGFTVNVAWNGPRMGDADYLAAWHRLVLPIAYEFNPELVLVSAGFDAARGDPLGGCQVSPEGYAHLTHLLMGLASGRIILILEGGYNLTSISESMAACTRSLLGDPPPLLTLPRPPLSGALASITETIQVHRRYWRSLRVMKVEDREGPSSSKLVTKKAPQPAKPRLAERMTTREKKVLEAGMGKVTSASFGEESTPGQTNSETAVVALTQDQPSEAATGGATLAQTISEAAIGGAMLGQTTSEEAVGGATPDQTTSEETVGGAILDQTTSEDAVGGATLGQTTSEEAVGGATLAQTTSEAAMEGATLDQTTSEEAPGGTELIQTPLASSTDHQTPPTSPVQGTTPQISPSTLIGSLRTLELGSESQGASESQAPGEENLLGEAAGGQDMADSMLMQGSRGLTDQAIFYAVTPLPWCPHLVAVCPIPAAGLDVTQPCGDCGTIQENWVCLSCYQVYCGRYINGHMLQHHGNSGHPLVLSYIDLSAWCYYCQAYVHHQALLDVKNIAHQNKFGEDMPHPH
Description: Inhibition of HDAC6 (unknown origin)

[5] = target: T2, Histone deacetylase 8 (Homo sapiens, UniProt Q9BY41); type: ADME
T2 sequence (Q9BY41 whole entry): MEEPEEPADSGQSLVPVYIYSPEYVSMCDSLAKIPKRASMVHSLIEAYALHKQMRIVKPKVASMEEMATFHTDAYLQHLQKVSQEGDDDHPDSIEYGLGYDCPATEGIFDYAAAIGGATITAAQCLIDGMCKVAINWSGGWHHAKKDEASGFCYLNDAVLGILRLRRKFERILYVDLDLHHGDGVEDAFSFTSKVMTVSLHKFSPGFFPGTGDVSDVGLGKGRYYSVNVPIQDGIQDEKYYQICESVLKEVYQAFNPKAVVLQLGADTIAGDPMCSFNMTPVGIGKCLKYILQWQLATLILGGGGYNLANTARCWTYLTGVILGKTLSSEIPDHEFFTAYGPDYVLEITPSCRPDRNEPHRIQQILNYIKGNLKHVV
Description: Inhibition of HDAC8 (unknown origin)

[6] = target: Histone deacetylase 1 (Homo sapiens, UniProt Q13547)
Histone deacetylase 1, sequence (Q13547 whole entry): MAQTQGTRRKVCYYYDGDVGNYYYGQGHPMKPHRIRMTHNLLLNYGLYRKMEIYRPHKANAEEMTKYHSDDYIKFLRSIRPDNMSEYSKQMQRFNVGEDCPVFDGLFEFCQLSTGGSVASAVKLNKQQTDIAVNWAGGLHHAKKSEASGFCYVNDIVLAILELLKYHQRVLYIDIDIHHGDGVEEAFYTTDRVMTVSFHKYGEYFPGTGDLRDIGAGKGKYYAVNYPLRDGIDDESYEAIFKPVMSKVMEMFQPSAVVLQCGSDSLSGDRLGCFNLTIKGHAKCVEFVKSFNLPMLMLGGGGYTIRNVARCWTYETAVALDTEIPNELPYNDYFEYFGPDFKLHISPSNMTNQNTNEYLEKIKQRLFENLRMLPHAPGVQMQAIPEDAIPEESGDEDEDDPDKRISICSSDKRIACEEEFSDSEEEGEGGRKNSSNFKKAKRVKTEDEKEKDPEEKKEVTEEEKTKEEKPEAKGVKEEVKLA
Description: Inhibition of HDAC1 (unknown origin)

[7] = AUC in Wistar Han rat at 10 mg/kg, po; type: ADME, organism-based; conditions: in vivo
[8] = Cmax in Wistar Han rat at 10 mg/kg, po; type: ADME, organism-based; set-up: dose 10 mg/kg, route oral; conditions: in vivo
[9] = Half life in Wistar Han rat at 2 mg/kg, iv or 10 mg/kg, po; type: ADME, organism-based; conditions: in vivo
[10] = Clearance in Wistar Han rat at 2 mg/kg, iv or 10 mg/kg, po; type: ADME, organism-based; conditions: in vivo
[11] = Oral bioavailability in Wistar Han rat at 10 mg/kg; type: ADME, organism-based; conditions: in vivo
[12] = AUC in Beagle dog at 2 mg/kg, po; type: ADME, organism-based, Canis lupus familiaris; conditions: in vivo
[13] = Cmax in Beagle dog at 2 mg/kg, po; type: ADME, organism-based, Canis lupus familiaris; set-up: dose 2 mg/kg, route oral; conditions: in vivo
[14] = Half life in Beagle dog at 1 mg/kg, iv or 2 mg/kg, po; type: ADME, organism-based, Canis lupus familiaris; conditions: in vivo
[15] = Clearance in Beagle dog at 1 mg/kg, iv or 2 mg/kg, po; type: ADME, organism-based, Canis lupus familiaris; conditions: in vivo
[16] = Oral bioavailability in Beagle dog at 2 mg/kg; type: ADME, organism-based, Canis lupus familiaris; conditions: in vivo

Structure (SMILES)	EC50 [1] [nM]	EC50 [2] [nM]	also measured
CCC(=O)CCCCC[C@H](NC(=O)C1CN(C)C1)c1ncc(-c2cc3ccccc3nc2OC)[nH]1	110	477	–
CCC(=O)CCCCC[C@H](NC(=O)[C@H]1CC12CCN(CC(F)(F)F)CC2)c1ncc(-c2cc3ccccc3nc2OC)[nH]1	112	719	–
CCC(=O)CCCCC[C@H](NC(=O)[C@H]1CC12CCCN(C)C2)c1ncc(-c2cc3ccccc3nc2OC)[nH]1 (some centres undefined)	81	324	–
CCC(=O)CCCCC[C@H](NC(=O)C1=NOC2(CCN(C)CC2)C1)c1ncc(-c2cc3ccccc3nc2OC)[nH]1	126	941	IC50 [3]: 5.2 nM
CCC(=O)CCCCC[C@H](NC(=O)[C@H]1C[C@@]12CCN(C)C2)c1ncc(-c2cc3ccccc3nc2OC)[nH]1	73	321	–
CCC(=O)CCCCC[C@H](NC(=O)[C@H]1CC12CCN(CC)CC2)c1nnc(-c2cc3ccccc3nc2OC)[nH]1	1230	1880	IC50 [4]: 95 nM; IC50 [5]: 2990 nM
CCC(=O)CCCCC[C@H](NC(=O)[C@H]1CC12CCN(C(C)=O)CC2)c1ncc(-c2cc3ccccc3nc2OC)[nH]1	1560	9850	IC50 [4]: 1170 nM; IC50 [5]: 2270 nM
CCC(=O)CCCCC[C@H](NC(=O)[C@H]1CC12CN(C)C2)c1ncc(-c2cc3ccccc3nc2OC)[nH]1	155	633	IC50 [4]: 299 nM; IC50 [5]: 2020 nM
CCC(=O)CCCCC[C@H](NC(=O)[C@@H]1CC12CCCN(C)C2)c1ncc(-c2cc3ccccc3nc2OC)[nH]1 (some centres undefined)	257	1010	–
CCC(=O)CCCCC[C@H](NC(=O)C1CCC2(CC1)CN(C)C2)c1ncc(-c2cc3ccccc3nc2OC)[nH]1	85	687	–
CCC(=O)CCCCC[C@H](NC(=O)[C@H]1CCC12CCN(CC)CC2)c1ncc(-c2cc3ccccc3nc2OC)[nH]1	43	110	–
CCC(=O)CCCCC[C@H](NC(=O)[C@@H]1CC12CN(C)C2)c1ncc(-c2cc3ccccc3nc2OC)[nH]1	74	287	–
CCC(=O)CCCCC[C@H](NC(=O)CC1CC2(C1)CN(C)C2)c1ncc(-c2cc3ccccc3nc2OC)[nH]1	130	810	IC50 [6]: 1 nM
CCC(=O)CCCCC[C@H](NC(=O)[C@H]1CC12CCN(Cc1cccnc1)CC2)c1ncc(-c2cc3ccccc3nc2OC)[nH]1	62	277	–
CCC(=O)CCCCC[C@H](NC(=O)[C@@H]1CC12CCN(C)CC2)c1ncc(-c2cc3ccccc3nc2OC)[nH]1	339	1370	–
CCCN1CCC2(CC1)C[C@@H]2C(=O)N[C@@H](CCCCCC(=O)CC)c1ncc(-c2cc3ccccc3nc2OC)[nH]1	154	895	–
CCC(=O)CCCCC[C@H](NC(=O)[C@@H]1C[C@@]12CCN(C)C2)c1ncc(-c2cc3ccccc3nc2OC)[nH]1	309	1150	–
CCC(=O)CCCCC[C@H](NC(=O)[C@H]1CC12CCN(C)CC2)c1nnc(-c2cc3ccccc3nc2OC)[nH]1	1620	2580	IC50 [4]: 92 nM; IC50 [5]: 1930 nM

Structure (SMILES)	EC50 [1] [nM]	EC50 [2] [nM]	also measured
CCC(=O)CCCCC[C@H](NC(=O)C1CC2(C1)CN(C)C2)c1ncc(-c2cc3ccccc3nc2OC)[nH]1	130	840	–
CCC(=O)CCCCC[C@H](NC(=O)[C@H]1CC12CCC(N(C)C)CC2)c1ncc(-c2cc3ccccc3nc2OC)[nH]1 (some centres undefined)	36	60	IC50 [4]: 363 nM; IC50 [5]: 75 nM
CCC(=O)CCCCC[C@H](NC(=O)[C@H]1CC12CCN(C)CC2)c1ncc(-c2cc3ccccc3nc2OC)[nH]1	26	83	IC50 [4]: 157 nM; AUC [7]: 2.1 µM·h; Cmax [8]: 630 nM; half-life [9]: 6.6 h; clearance [10]: 22 mL/min/kg; bioavailability [11]: 13%; AUC [12]: 1.8 µM·h; Cmax [13]: 690 nM; half-life [14]: 7.2 h; clearance [15]: 8.5 mL/min/kg; bioavailability [16]: 22.4%
CCC(=O)CCCCC[C@H](NC(=O)[C@H]1CC12CCN(CCC(F)(F)F)CC2)c1ncc(-c2cc3ccccc3nc2OC)[nH]1	78	343	–
CCC(=O)CCCCC[C@H](NC(=O)[C@H]1CC12CCN(C(C)C)CC2)c1ncc(-c2cc3ccccc3nc2OC)[nH]1	32	57	–
CCC(=O)CCCCC[C@H](NC(=O)[C@H]1C[C@]12CCN(C)C2)c1ncc(-c2cc3ccccc3nc2OC)[nH]1	72	232	–
CCC(=O)CCCCC[C@H](NC(=O)[C@H]1CC12CCN(Cc1ccccc1)CC2)c1ncc(-c2cc3ccccc3nc2OC)[nH]1	74	175	–
CCC(=O)CCCCC[C@H](NC(=O)[C@H]1CC12CCN(C)CC2)c1nnc(-c2cc3ccccc3nc2OC)o1	689	691	IC50 [5]: 45000 nM
CCC(=O)CCCCC[C@H](NC(=O)[C@@H]1C[C@]12CCN(C)C2)c1ncc(-c2cc3ccccc3nc2OC)[nH]1	261	1140	IC50 [4]: 149 nM
CCC(=O)CCCCC[C@H](NC(=O)[C@@H]1CC12CCOCC2)c1ncc(-c2cc3ccccc3nc2OC)[nH]1	647	5040	–
CCC(=O)CCCCC[C@H](NC(=O)[C@@H]1CC12CCC(N(C)C)CC2)c1ncc(-c2cc3ccccc3nc2OC)[nH]1 (some centres undefined)	441	1140	IC50 [4]: 759 nM; IC50 [5]: 5580 nM
CCC(=O)CCCCC[C@H](NC(=O)[C@@H]1CCC12CCN(CC)CC2)c1ncc(-c2cc3ccccc3nc2OC)[nH]1	161	720	IC50 [4]: 518 nM; IC50 [5]: 2330 nM
CCC(=O)CCCCC[C@H](NC(=O)[C@H]1CC12CCN(C)CC2)c1ncc(-c2cc3ccccc3nc2OC)o1	194	310	IC50 [6]: 1.5 nM; IC50 [3]: 4.7 nM; AUC [7]: 6.77 µM·h; Cmax [8]: 700 nM; half-life [9]: 3.2 h; clearance [10]: 11 mL/min/kg; bioavailability [11]: 20.6%
CCC(=O)CCCCC[C@H](NC(=O)[C@H]1CC12CCN(Cc1ccc(OC)cc1)CC2)c1ncc(-c2cc3ccccc3nc2OC)[nH]1	113	180	–
CCC(=O)CCCCC[C@H](NC(=O)[C@H]1CC12CCN(CC)CC2)c1ncc(-c2cc3ccccc3nc2OC)o1	111	151	AUC [7]: 14 µM·h; Cmax [8]: 1430 nM; half-life [9]: 8.6 h; clearance [10]: 15 mL/min/kg; bioavailability [11]: 68.9%
CCC(=O)CCCCC[C@H](NC(=O)[C@H]1CC12CCN(CC1CC1)CC2)c1ncc(-c2cc3ccccc3nc2OC)[nH]1	15	30	–
CCC(=O)CCCCC[C@H](NC(=O)[C@H]1CC12CCOCC2)c1ncc(-c2cc3ccccc3nc2OC)[nH]1	234	1790	–
CCC(=O)CCCCC[C@H](NC(=O)[C@H]1CC12CCN(C(C)C)CC2)c1ncc(-c2cc3ccccc3nc2OC)o1	161	309	IC50 [6]: 3.5 nM
